Source: patent US20250129067A1 (Progentos Therapeutics, Inc., priority 2021, published 2025)

How the values were obtained:
[1] = target: PDGFRα (Homo sapiens (Human), UniProt P16234); assay: PDGFRα kinase enzyme assay (Promega PDGFRα Kinase Enzyme System, ADP-Glo); format: biochemical; conditions: 11-point dose response, 10,000 nM to 0.169 nM; 150 uM ATP; BLQ = below limit of quantitation; read-out: IC50 Values on PDGFRα Kinase Inhibition, IC50
Experimental: The PDGFRα enzyme assays were conducted per the manufacturer's directions (Promega PDGFRα Kinase Enzyme System and ADP Glo Assay Cat #V8011). […] 20 ng of purified PDGFRα protein was added to the test article. […] ADP-Glo was added to halt the kinase reaction and deplete the remaining ATP. Kinase detection reagent, containing luciferase and luciferin, was used to convert the ADP signal into luminescence. Luminescence was measured using a Molecular Devices Spectramax ID5 and compared to a standard curve to determine kinase activity. IC50s were calculated using Prism 9, Graphpad software.

[2] = test system: Oligodendrocyte progenitor cells (OPCs); assay: In vitro OPC differentiation assay, GPR17 expression (immunocytochemistry); conditions: 72 hours, fold change over vehicle; for GPR17 Fold Induction (Over Vehicle; 3 μM): 3 μM (10× concentration, final 0.3 μM); for GPR17 Fold Induction (Over Vehicle; 5 μM): 5 μM (10× concentration, final 0.5 μM)

Sequence of PDGFRα (P16234 24-1089): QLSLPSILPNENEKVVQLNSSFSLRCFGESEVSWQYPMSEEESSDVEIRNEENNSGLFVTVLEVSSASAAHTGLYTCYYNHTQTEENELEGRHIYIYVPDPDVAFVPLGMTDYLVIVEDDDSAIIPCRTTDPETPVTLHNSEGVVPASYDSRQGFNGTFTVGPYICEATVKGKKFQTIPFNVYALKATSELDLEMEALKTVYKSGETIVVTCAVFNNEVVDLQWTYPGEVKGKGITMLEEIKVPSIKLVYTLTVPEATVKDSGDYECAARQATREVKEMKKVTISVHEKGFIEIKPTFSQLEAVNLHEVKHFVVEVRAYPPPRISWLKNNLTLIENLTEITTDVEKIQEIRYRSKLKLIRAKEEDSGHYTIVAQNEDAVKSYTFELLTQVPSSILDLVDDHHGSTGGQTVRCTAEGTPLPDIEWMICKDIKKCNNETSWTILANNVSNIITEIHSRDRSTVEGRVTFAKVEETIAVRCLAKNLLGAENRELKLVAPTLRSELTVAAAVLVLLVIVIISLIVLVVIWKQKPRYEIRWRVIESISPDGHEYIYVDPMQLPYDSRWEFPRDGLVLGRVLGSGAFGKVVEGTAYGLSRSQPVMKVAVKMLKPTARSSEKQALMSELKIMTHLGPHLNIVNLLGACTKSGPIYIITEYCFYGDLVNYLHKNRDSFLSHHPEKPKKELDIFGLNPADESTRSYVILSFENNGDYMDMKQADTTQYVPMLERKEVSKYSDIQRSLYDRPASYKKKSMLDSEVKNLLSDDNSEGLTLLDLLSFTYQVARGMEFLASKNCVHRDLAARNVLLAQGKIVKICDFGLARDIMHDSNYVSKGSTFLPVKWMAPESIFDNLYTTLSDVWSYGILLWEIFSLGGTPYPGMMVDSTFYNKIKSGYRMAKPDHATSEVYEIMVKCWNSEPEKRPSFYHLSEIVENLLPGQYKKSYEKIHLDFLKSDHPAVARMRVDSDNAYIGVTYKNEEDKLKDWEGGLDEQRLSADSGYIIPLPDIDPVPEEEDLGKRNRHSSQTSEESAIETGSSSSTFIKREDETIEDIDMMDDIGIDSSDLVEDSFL

| IC50 [1] [µM] | GPR17 Fold Induction (Over Vehicle; 3 μM) [2] | GPR17 Fold Induction (Over Vehicle; 5 μM) [2] | Structure (SMILES) |
| --- | --- | --- | --- |
| > 10 | 0.83 | – | CN1CCC(OC(=O)N2CCN(c3cnn4cc(-c5cnn(C)c5)ccc34)CC2)CC1 [Compound 19, 1-methylpiperidin-4-yl 4-[6-(1-methyl-1H-pyrazol-4-yl)pyrazolo[1,5-a]pyridin-3-yl]piperazine-1-carboxylate] |
| > 10 | 0.58 | – | CN1CCC(COC(=O)N2CCN(c3cnn4cc(-c5cnn(C)c5)ccc34)CC2)CC1 [Compound 20, (1-methylpiperidin-4-yl)methyl 4-[6-(1-methyl-1H-pyrazol-4-yl)pyrazolo[1,5-a]pyridin-3-yl]piperazine-1-carboxylate] |
| > 10 | 1.07 | – | Cn1cc(-c2ccc3c(N4CCN(c5ncc(C(=O)c6ccc(F)cc6)cn5)CC4)cnn3c2)cn1 [Compound 25, (4-fluorophenyl)(2-{4-[6-(1-methyl-1H-pyrazol-4-yl)pyrazolo[1,5-a]pyridin-3-yl]piperazin-1-yl}pyrimidin-5-yl)methanone] |
| > 10 | 0.96 | – | Cn1cc(-c2ccc3c(N4CCN(C(=O)OC(C)(C)C)CCC4=O)cnn3c2)cn1 [Compound 27, tert-butyl 4-[6-(1-methyl-1H-pyrazol-4-yl)pyrazolo[1,5-a]pyridine-3-yl]-5-oxo-1,4-diazepane-1-carboxylate] |
| > 10 | 1.84 | – | Cn1cc(-c2ccc3c(N4CCN(C(=O)OC(C)(C)C)CC4=O)cnn3c2)cn1 [Compound 28, tert-butyl 4-[6-(1-methyl-1H-pyrazol-4-yl)pyrazolo[1,5-a]pyridine-3-yl]-3-oxopiperazine-1-carboxylate] |
| > 10 | 1.78 | – | Cn1cc(-c2ccc3c(N4CCN(C(=O)OC5CCOCC5)CC4)cnn3c2)cn1 [Compound 39, tetrahydro-2H-pyran-4-yl 4-[6-(1-methyl-1H-pyrazol-4-yl)pyrazolo[1,5-a]pyridin-3-yl]piperazine-1-carboxylate] |
| 1.39 | 1.39 | – | Cn1cc(-c2ccc3c(N4CCN(C(=O)OC(C)(C)C)CC4)cnn3n2)cn1 [Compound 45, Tert-butyl 4-[6-(1-methyl-1H-pyrazol-4-yl)pyrazolo[1,5-b]pyridazin-3-yl]piperazine-1-carboxylate] |
| – | 1.43 | – | Cn1cc(-c2ccn3c(N4CCN(C(=O)OC(C)(C)C)CC4)cnc3n2)cn1 [Compound 87] |
| – | 1.94 | – | Cn1cc(-c2ccc3c(N4CCN(Cc5ccc(Cl)cc5)CC4)cnn3c2)cn1 [Compound 202, 3-(4-(4-chlorobenzyl)piperazin-1-yl)-6-(1-methyl-1H-pyrazol-4-yl)pyrazolo[1,5-a]pyridine] |

More lines, now with the values behind:

| Structure (SMILES) | IC50 [1] [µM] | GPR17 Fold Induction (Over Vehicle; 3 μM) [2] | GPR17 Fold Induction (Over Vehicle; 5 μM) [2] |
| --- | --- | --- | --- |
| Cn1cc(-c2ccn3ncc(N4CCN(c5ncc(Cc6ccccc6)cn5)CC4)c3c2)cn1 [Compound 4, 3-[4-(5-benzylpyrimidin-2-yl)piperazin-1-yl]-5-(1-methyl-1H-pyrazol-4-yl)pyrazolo[1,5a]pyridine] | > 10 | – | – |
| Cn1cc(-c2ccc3c(N4CCN(c5ncc(Cc6ccccc6)cn5)CC4)nnn3c2)cn1 [Compound 9, 3-[4-(5-benzylpyrimidin-2-yl)piperazin-1-yl]-6-(1-methyl-1H-pyrazol-4-yl)[1,2,3]triazolo[1,5-a]pyridine] | > 10 | 1.88 | – |
| Cn1cc(-c2ccc3c(N4CCNCC4)cnn3c2)cn1 [Compound 12, 1-[6-(1-methylpyrazol-4-yl)pyrazolo[1,5-a]pyridin-3-yl]piperazine] | > 10 | 0.68 | – |
| Cn1cc(-c2ccc3c(N4CCN(C(=O)OCC5CCOCC5)CC4)cnn3c2)cn1 [Compound 14, Tetrahydro-2H-pyran-4-ylmethyl 4-[6-(1-methyl-1H-pyrazol-4-yl)pyrazolo[1,5-a]pyridin-3-yl]piperazine-1-carboxylate] | 4.31 | 1.11 | – |
| Cn1cc(-c2cn3ncc(N4CCN(c5ncc(Cc6ccccc6)cn5)CC4)c3cn2)cn1 [Compound 22, 3-[4-(5-Benzylpyrimidin-2-yl)piperazin-1-yl]-6-(1-methyl-1H-pyrazol-4-yl)pyrazolo[1,5-a]pyrazine] | > 10 | 6.13 | 3.46 |
| Cn1cc(-c2ccn3c(N4CCN(c5ncc(Cc6ccccc6)cn5)CC4)nnc3c2)cn1 [Compound 24, 3-[4-(5-benzylpyrimidin-2-yl)piperazin-1-yl]-7-(1-methyl-1H-pyrazol-4-yl)[1,2,4]triazolo[4,3-a]pyridine] | > 10 | 0.54 | – |
| CC(C)OC(=O)N1CCN(c2cnn3cc(-c4cnn(C)c4)ccc23)CC1 [Compound 31, isopropyl 4-[6-(1-methyl-1H-pyrazol-4-yl)pyrazolo[1,5-a]pyridin-3-yl]piperazine-1-carboxylate] | 0.244 | 9.76 | 6.22 |
| Cn1cc(-c2ccc3c(N4CCCN(C(=O)OC(C)(C)C)CC4)cnn3c2)cn1 [Compound 40, tert-butyl 4-(6-(1-methyl-1H-pyrazol-4-yl)pyrazolo[1,5-a]pyridin-3-yl)-1,4-diazepane-1-carboxylate] | 2.42 | 1.27 | – |
| Cn1cc(-c2ccc3c(N4CCN(c5ncc(CN6CCCCC6)cn5)CC4)cnn3c2)cn1 [Compound 42, 6-(1-methyl-1H-pyrazol-4-yl)-3-{4-[5-(piperidin-1-ylmethyl)pyrimidin-2-yl]piperazin-1-yl}pyrazolo[1,5-a]pyridine] | 8.25 | 10.21 | 4.64 |
| CN(C)CCn1cc(-c2ccc3c(N4CCN(c5ncc(Cc6ccccc6)cn5)CC4)cnn3c2)cn1 [Compound 43, 2-(4-{3-[4-(5-benzylpyrimidin-2-yl)piperazin-1-yl]pyrazolo[1,5-a]pyridin-6-yl}-1H-pyrazol-1-yl)-N,N-dimethylethanamine] | 0.385 | 12.48 | 6.92 |
| CC(C)NC(=O)N1CCN(c2cnn3cc(-c4cnn(C)c4)ccc23)CC1 [Compound 47, N-isopropyl 4-[6-(1-methyl-1H-pyrazol-4-yl)pyrazolo[1,5-a]pyridin-3-yl]piperazine-1-carboxamide] | 3.99 | 1.13 | – |
| Cn1cc(-c2ccc3c(N4CC5(CN(c6ncc(Cc7ccccc7)cn6)C5)C4)cnn3c2)cn1 [Compound 48, 3-[6-(5-benzylpyrimidin-2-yl)-2,6-diazaspiro[3.3]hept-2-yl]-6-(1-methyl-pyrazol-4-yl)pyrazolo[1,5-a]pyridine] | > 10 | 2.75 | – |
| Cn1cc(-c2ccc3c(N4CCN(C5=NCC(c6ccccc6)O5)CC4)cnn3c2)cn1 (stereo not shown) [Compound 56, 6-(1-Methyl-1H-pyrazol-4-yl)-3-[4-(5-phenyl-4,5-dihydro-1,3-oxazol-2-yl)piperazin-1-yl]pyrazolo[1,5-a]pyridine] | 1.44 | 4.54 | – |
| C[C@@H](OC(=O)N1CCN(c2cnn3cc(-c4cnn(C)c4)ccc23)CC1)C1CCCCC1 [Compound 57, (1R)-1-cyclohexylethyl 4-[6-(1-methyl-1H-pyrazol-4-yl)pyrazolo[1,5-a]pyridin-3-yl]piperazine-1-carboxylate] | 5.58 | 5.28 | – |
| Cn1cc(-c2ccc3c(C4=CCN(c5ncc(Cc6ccccc6)cn5)CC4)cnn3c2)cn1 [Compound 60, 3-[1-(5-benzylpyrimidin-2-yl)-1,2,3,6-tetrahydropyridin-4-yl]-6-(1-methyl-1H-pyrazol-4-yl)pyrazolo[1,5-a]pyridine] | 5.03 | 2.92 | – |
| Cn1cc(-c2ccc3c(N4CCN(c5ncc(CC6CCCCC6)cn5)CC4)cnn3c2)cn1 [Compound 62, 3-{4-[5-(cyclohexylmethyl)pyrimidin-2-yl]piperazin-1-yl}-6-(1-methyl-1H-pyrazol-4-yl)pyrazolo[1,5-a]pyridine] | 0.415 | 6.53 | – |
| Cn1cc(-c2ccc3c(N4CCN(c5ncc(CC6CCOCC6)cn5)CC4)cnn3c2)cn1 [Compound 68, 6-(1-methyl-1H-pyrazol-4-yl)-3-{4-[5-(tetrahydro-2H-pyran-4-ylmethyl)pyrimidin-2-yl]piperazin-1-yl}pyrazolo[1,5-a]pyridine] | 1.24 | 4.35 | – |
| Cn1cc(-c2ccc3c(N4CCN(c5cnc(Cc6ccccc6)nc5)CC4)cnn3c2)cn1 [Compound 70, 3-[4-(2-benzylpyrimidin-5-yl)piperazin-1-yl]-6-(1-methyl-1H-pyrazol-4-yl)pyrazolo[1,5-a]pyridine] | 6.7 | 3.72 | – |
| CN(CCCN(C)c1cnn2cc(-c3cnn(C)c3)ccc12)c1ncc(Cc2ccccc2)cn1 [Compound 130] | – | 1.57 | – |
| Cn1cc(-c2ccc3c(N4CCN(C(=O)OCc5ccc(Cl)cc5)CC4)cnn3c2)cn1 [Compound 198, 4-chlorobenzyl 4-(6-(1-methyl-1H-pyrazol-4-yl)pyrazolo[1,5-a]pyridin-3-yl)piperazine-1-carboxylate] | – | 9.23 | – |
| Cn1cc(-c2ccc3c(CCc4ncc(Cc5ccccc5)cn4)cnn3c2)cn1 [Compound 305, 3-(2-(5-benzylpyrimidin-2-yl)ethyl)-6-(1-methyl-1H-pyrazol-4-yl)pyrazolo[1,5-a]pyridine] | – | 1.15 | – |
